Results on ten compounds are retold here after patent US20240109864A1, “SUBSTITUTED PYRAZOLYL PIPERIDINE CARBOXYLIC ACIDS” (BAYER AKTIENGESELLSCHAFT, priority 2020, published 2024).

pEC50: −log10 of the molar value. Structures can show the parent of a compound that is named as a salt. Where only a bound is given, the exact number is not on record here.

Data set [1] can be described thus: Pharmacokinetic parameters following oral administration in rats. The data set is classed as in vivo. As to the method:
(§1) The pharmacokinetic parameters of the compounds according to the invention were determined in male Wistar rats and/or in female beagles and/or in cynomolgus monkeys and/or in male CD-1 mice. Intravenous administration in the case of mice and rats was carried out by means of a species-specific plasma/DMSO formulation, and in the case of dogs and monkeys by means of a water/PEG400/ethanol formulation. In all species, oral administration of the dissolved substance was performed via gavage, based on a water/PEG400/ethanol formulation.
An internal standard (which may also be a chemically unrelated substance) was added to the samples of the compounds of the invention, calibration samples and qualifiers, and there followed protein precipitation by means of acetonitrile in excess. Addition of a buffer solution matched to the LC conditions, and subsequent vortexing, was followed by centrifugation at 1000 g. The supernatant was analysed by LC-MS/MS using C18 reversed-phase columns and variable mobile phase mixtures. The substances were quantified via the peak heights or areas from extracted ion chromatograms of specific selected ion monitoring experiments.
The plasma concentration/time plots determined were used to calculate the pharmacokinetic parameters such as AUC, Cmax, t1/2 (terminal half-life), F (bioavailability), MRT (mean residence time) and CL (clearance), by means of a validated pharmacokinetic calculation program.
Since the substance quantification was performed in plasma, it was necessary to determine the blood/plasma distribution of the substance in order to be able to adjust the pharmacokinetic parameters correspondingly. For this purpose, a defined amount of substance was incubated in K3 EDTA whole blood of the species in question in a rocking roller mixer for 20 min. After centrifugation at 1000 g, the plasma concentration was measured (by means of LC-MS/MS; see above) and determined by calculating the ratio of the Cblood/Cplasma value.

Data set [2] can be described thus: Pharmacokinetic parameters following intravenous administration in rats. The class given is in vivo. How it is done:
as §1
An internal standard (which may also be a chemically unrelated substance) was added to the samples of the compounds of the invention, calibration samples and qualifiers, and there followed protein precipitation by means of acetonitrile in excess. […] The supernatant was analysed by LC-MS/MS using C18 reversed-phase columns and variable mobile phase mixtures. The substances were quantified via the peak heights or areas from extracted ion chromatograms of specific selected ion monitoring experiments.
The plasma concentration/time plots determined were used to calculate the pharmacokinetic parameters such as AUC, Cmax, t1/2 (terminal half-life), F (bioavailability), MRT (mean residence time) and CL (clearance), by means of a validated pharmacokinetic calculation program. […]

In data set [3] the target is T1, recombinant guanylate cyclase reporter cell line (Rattus norvegicus, UniProt P20595).
T1 construct: expressed in transfected cells
T1 sequence (P20595 1-619): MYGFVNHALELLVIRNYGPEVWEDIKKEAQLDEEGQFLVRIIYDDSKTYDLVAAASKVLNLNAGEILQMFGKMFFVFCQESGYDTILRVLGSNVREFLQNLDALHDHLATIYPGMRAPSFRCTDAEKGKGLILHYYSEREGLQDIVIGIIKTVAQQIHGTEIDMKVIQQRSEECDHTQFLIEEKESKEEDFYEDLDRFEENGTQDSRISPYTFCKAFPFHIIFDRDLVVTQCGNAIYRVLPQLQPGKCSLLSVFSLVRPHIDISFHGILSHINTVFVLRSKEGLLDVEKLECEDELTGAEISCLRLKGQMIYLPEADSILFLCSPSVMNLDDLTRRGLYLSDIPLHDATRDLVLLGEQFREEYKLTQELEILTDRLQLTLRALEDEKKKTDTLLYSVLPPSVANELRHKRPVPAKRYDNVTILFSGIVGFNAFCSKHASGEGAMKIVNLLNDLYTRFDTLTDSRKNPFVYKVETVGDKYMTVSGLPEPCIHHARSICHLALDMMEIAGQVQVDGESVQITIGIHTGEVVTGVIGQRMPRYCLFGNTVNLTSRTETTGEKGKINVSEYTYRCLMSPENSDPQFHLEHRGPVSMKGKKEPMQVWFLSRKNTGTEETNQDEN
T1 sequence (P19686 1-690 partner): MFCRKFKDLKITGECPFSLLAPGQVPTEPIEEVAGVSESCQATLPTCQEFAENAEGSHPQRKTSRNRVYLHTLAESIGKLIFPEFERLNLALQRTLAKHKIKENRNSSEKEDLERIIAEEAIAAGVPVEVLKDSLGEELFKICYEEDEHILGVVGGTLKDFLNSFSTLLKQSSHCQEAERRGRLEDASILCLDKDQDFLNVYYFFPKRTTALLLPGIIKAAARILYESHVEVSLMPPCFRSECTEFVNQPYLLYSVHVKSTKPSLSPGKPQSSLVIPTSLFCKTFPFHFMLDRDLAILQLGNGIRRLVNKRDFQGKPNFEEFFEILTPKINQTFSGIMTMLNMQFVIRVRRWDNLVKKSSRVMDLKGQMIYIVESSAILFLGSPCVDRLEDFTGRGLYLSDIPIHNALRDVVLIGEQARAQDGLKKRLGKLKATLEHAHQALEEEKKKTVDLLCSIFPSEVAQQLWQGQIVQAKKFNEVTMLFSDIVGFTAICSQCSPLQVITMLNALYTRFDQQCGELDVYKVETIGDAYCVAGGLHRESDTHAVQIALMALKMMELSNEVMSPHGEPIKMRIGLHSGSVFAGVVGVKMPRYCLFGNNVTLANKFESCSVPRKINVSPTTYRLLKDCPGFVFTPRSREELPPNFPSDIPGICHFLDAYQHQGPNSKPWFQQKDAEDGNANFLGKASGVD
Briefly: Effect on a recombinant guanylate cyclase reporter cell line. The class given is cell-based. The following applies: in some cases mean values from individual determinations; for MEC: MEC = minimum effective concentration; for pEC50: half maximal effective concentration. As to the method: The cellular activity of the compounds according to the invention was determined using a recombinant guanylate cyclase reporter cell line, as described in F. Wunder et al., Anal. Biochem. 339, 104-112 (2005).

On to `O=C(O)c1cnn(C2CCCN(c3cc(Cl)ccc3-c3ccc(N4CCN(CC5CC5)CC4)cc3)C2)c1C(F)(F)F` (single isomer, unassigned) [Example 7, 1-[1-[5-Chloro-2-[4-[4-(cyclopropylmethyl)piperazin-1-yl]phenyl]phenyl]-3-piperidyl]-5-(trifluoromethyl)pyrazole-4-carboxylic acid hydrochloride], for which the “bioavailability in comparison to prior art (WO 2012/058132)” value in data set [1] (after oral (p.o.) application) was “lower bioavailability”. The values for the AUCnorm in data set [1] (oral administration in rats) and in data set [2] were 0.52 kg·h/L and 1.37 kg·h/L, respectively. The F in data set [1] (oral administration in rats, F = bioavailability) amounted to 37.4%. Moreover, the MEC in data set [3] was found to be 2.0 nM.

Turning to `O=C(O)c1cnn(C2CCCN(c3cc(Cl)ccc3-c3ccc(N4CCN(CC(F)(F)F)CC4)nc3)C2)c1C(F)(F)F` (single isomer, unassigned) [Example 77, 1-[1-[5-Chloro-2-[6-[4-(2,2,2-trifluoroethyl)piperazin-1-yl]-3-pyridyl]phenyl]-3-piperidyl]-5-(trifluoromethyl)pyrazole-4-carboxylic acid], in data set [3], the MEC worked out at 30.0 nM and the pEC50 is 7.08.

Turning to `O=C(O)c1cnn(C2CCCN(c3cc(Cl)ccc3-c3ccc(C4CN(CCC(F)(F)F)C4)cc3)C2)c1C(F)(F)F` (single isomer, unassigned) [Example 78, 1-[1-[5-Chloro-2-[4-[1-(3,3,3-trifluoropropyl)azetidin-3-yl]phenyl]phenyl]-3-piperidyl]-5-(trifluoromethyl)pyrazole-4-carboxylic acid hydrochloride], in data set [3], the MEC was 1.0 nM and the pEC50 is 7.88.

Take `O=C(O)c1cnn(C2CCCN(c3cc(Cl)ccc3-c3ccc(C4CC4)nc3)C2)c1C(F)(F)F` (single isomer, unassigned) [Example 79, 1-[1-[5-Chloro-2-(6-cyclopropyl-3-pyridyl)phenyl]-3-piperidyl]-5-(trifluoromethyl)pyrazole-4-carboxylic acid]: in data set [3], the MEC is 1.0 nM and the negative logarithm of the EC50 (pEC50) was 8.44.

As to `O=C(O)c1cnn(C2CCCN(c3cc(Cl)ccc3-c3ccc4c(c3)CCN(CC(F)(F)F)C4)C2)c1C(F)(F)F` (single isomer, unassigned) [Example 80, 1-[1-[5-Chloro-2-[2-(2,2,2-trifluoroethyl)-3,4-dihydro-1H-isoquinolin-6-yl]phenyl]-3-piperidyl]-5-(trifluoromethyl)pyrazole-4-carboxylic acid], in data set [3], the MEC is 10.0 nM and the pEC50 was 7.07.

As to `CC(C)CN1CCc2cc(-c3ccc(Cl)cc3N3CCCC(n4ncc(C(=O)O)c4C(F)(F)F)C3)ccc2C1` (single isomer, unassigned) [Example 81, 1-[1-[5-Chloro-2-(2-isobutyl-3,4-dihydro-1H-isoquinolin-6-yl)phenyl]-3-piperidyl]-5-(trifluoromethyl)pyrazole-4-carboxylic acid hydrochloride], in data set [3], the MEC is 30.0 nM and the pEC50 was 7.37.

For `CCC(=O)N1CCC(c2ccc(-c3ccc(Cl)cc3N3CCCC(n4ncc(C(=O)O)c4C(F)(F)F)C3)cc2)CC1` (single isomer, unassigned) [Example 82, 1-[1-[5-Chloro-2-[4-(1-propanoyl-4-piperidyl)phenyl]phenyl]-3-piperidyl]-5-(trifluoromethyl)pyrazole-4-carboxylic acid hydrochloride], in data set [3], the MEC came to 0.3 nM and the pEC50 was 8.41.

On to `CCC(=O)N1CCC(c2ccc(-c3ccc(Cl)cc3N3CCCC(n4ncc(C(=O)O)c4C(F)(F)F)C3)cc2)CC1` (single isomer, unassigned) [Example 83, 1-[1-[5-Chloro-2-[4-(1-propanoyl-4-piperidyl)phenyl]phenyl]-3-piperidyl]-5-(trifluoromethyl)pyrazole-4-carboxylic acid hydrochloride], for which, in data set [3], the MEC was determined as 0.3 nM and the pEC50 was 8.41.

`O=C(O)c1cnn(C2CCCN(c3cc(Cl)ccc3-c3ccc(C4CCN(C(=O)C5CC5)CC4)cc3)C2)c1C(F)(F)F` (single isomer, unassigned) [Example 84, 1-[1-[5-Chloro-2-[4-[1-(cyclopropanecarbonyl)-4-piperidyl]phenyl]phenyl]-3-piperidyl]-5-(trifluoromethyl)pyrazole-4-carboxylic acid hydrochloride]: the MEC in data set [3] (hydrochloride) is on record as 0.3 nM. In addition, in data set [3], the pEC50 was 8.60.

Turning to `O=C(O)c1cnn(C2CCCN(c3cc(Cl)ccc3-c3ccc(C4CCN(C(=O)C5CC5)CC4)cc3)C2)c1C(F)(F)F` (single isomer, unassigned) [Example 85, 1-[1-[5-Chloro-2-[4-[1-(cyclopropanecarbonyl)-4-piperidyl]phenyl]phenyl]-3-piperidyl]-5-(trifluoromethyl)pyrazole-4-carboxylic acid hydrochloride], the MEC in data set [3] (hydrochloride) is under 0.3 nM. The negative logarithm of the EC50 (pEC50) in data set [3] was 8.96.
